Test results: patent publication US9545386B2, “Methods of treating infectious diseases” (SLIPPERY ROCK UNIVERSITY FOUNDATION, INC., priority 2007, dated 2017)
Converted amounts (≈) assume the structure as drawn.

Assays:
T. avium trypomastigotes = assay: Short-term behavioral study (swimming behavior and maneuverability); format: cell-based, Trypanosoma avium; settings: 75 μl eryngial (1%) and Triton X-100 (0.04%) added to 75 μl T. avium; observed at 15-minute intervals for 1 hr
Description: A short-term behavioral study also was conducted by adding 75 μl of eryngial (1%) and Triton X-100 (0.04%) to 75 μl of L.N.S. with T. avium (1.0×10^5 trypomastigotes/ml). The swimming behavior and maneuverability of the organisms were observed microscopically in triplicate samples at 15-minute intervals for 1 hr. This was recorded with a digital video camera.

Enterococcus faecalis = assay: Antibacterial MIC/MBC, 96 well broth dilution; format: cell-based; settings: E. faecalis, 24 hr in vitro, 0.02% Triton X-100
Description: (§1) Bacterial cultures were obtained from the American Type Culture Collection (ATCC), except for Streptococcus pyogenes, which was started from a Difco Bactrol disc. The other organisms were Enterococcus faecalis, Staphylococcus aureus, Escherichia coli, Salmonella typhimurium and Pseudomonas aeruginosa. Cultures were grown in Luria-Bertani (LB) broth. Fungi were obtained from Carolina Biological Supply Company (Aspergillus niger, Candida albicans and Cryptococcus neoformans); Presque Isle Cultures, Erie Pa. (Microsporum gypseum); or from ATCC (Penicillium marneffei). Fungal cultures were maintained in Sabouraud dextrose broth (SDB) or agar (SDA). All media components came from Difco.
(§2) Tests were done in flat-bottomed 96 well cell culture plates (Costar). All samples were done in duplicate. Eryngial was suspended in culture medium plus 0.04% Triton-X to make a 2% (20 mg/ml) suspension, which was passed through a 0.22 μm filter to make a uniform emulsion. Serial doubling dilutions of eryngial in culture medium plus 0.04% Triton-X were prepared, and 75 μl was added to each well. 75 μl of cell or spore suspensions in culture medium also were added to each well. The final concentration of Triton-X was 0.02%, and the final concentration of eryngial was 1% (10 mg/ml) at the highest concentration tested.
(§3) Dimethyl sulfoxide (DMSO) also was used as a solvent for eryngial. A solution of 12.5% eryngial in DMSO was the initial solution. Doubling dilutions were carried out in DMSO. The DMSO-eryngial solutions were diluted 100-fold into growth medium, resulting in a final concentration of 1% DMSO, and 0.125% (1,250 μg/ml) eryngial as the highest concentration tested.
(§4) Overnight bacterial cultures in LB medium were diluted into fresh LB to an OD600 of 0.02 to 0.03, and then diluted 1000-fold again in LB. […] Blank wells for each concentration of eryngial were prepared with plain culture medium added.
(§5) The 96 well plates were incubated at 37° for 24 hr (in a candle jar for S. pyogenes), and the OD630 was read on an EL800 universal microplate reader (Bio-Tek Instruments). Readings from duplicate wells were averaged, and readings from duplicate blank wells for each concentration of eryngial were subtracted to generate the final values. The minimum inhibitory concentration (MIC, μg/ml) was defined as the well with the highest dilution of eryngial in which no growth was observed.
(§6) To determine whether eryngial was merely inhibiting growth of the bacteria and fungi, or whether it also was having a killing effect, the minimum bactericidal concentrations (MBC, μg/ml) or minimum fungicidal concentrations (MFC, μg/ml) were determined. This was done by removing a 50 μl sample from a well after 24 hr (bacteria) or 96 hr (fungi) and diluting the samples in 5 ml of fresh culture medium. These tubes then were incubated at the appropriate temperature for 24-96 hr and observed for any signs of growth.

Streptococcus pyogenes = assay: Antibacterial MIC/MBC, 96 well broth dilution; format: cell-based; settings: S. pyogenes, 24 hr in vitro, DMSO as solvent
Description: as §1, §2, §3, §4, §5, §6

Staphylococcus aureus = assay: Antibacterial MIC/MBC, 96 well broth dilution; format: cell-based; settings: S. aureus, 24 hr in vitro, 0.02% Triton X-100
Description: as §1, §2, §3, §4, §5, §6

CCCCCCCCC/C=C/C=O [Eryngial, trans-2-dodecenal]
swimming behavior and maneuverability of trypomastigotes (T. avium trypomastigotes): movement was completely stopped | MBC (Enterococcus faecalis): 313 µg/mL (≈ 1720 µM) | MIC (Enterococcus faecalis): 313 µg/mL (≈ 1720 µM) | MBC (Streptococcus pyogenes): 156 µg/mL (≈ 856 µM) | MIC (Streptococcus pyogenes): 156 µg/mL (≈ 856 µM) | MBC (Staphylococcus aureus): 78 µg/mL (≈ 428 µM) | MIC (Staphylococcus aureus): 78 µg/mL (≈ 428 µM)
